Source: PubChem BioAssay (NCI)
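How tested: cells in 96-well plates exposed to compound for 48 hours at five concentrations. At the GI50, growth is halved. TGI: total growth inhibition.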

Legend:
Experiment in all cases: DTP human tumour cell line panel, 48 h
K-562 leukemia = system: K-562 leukemia
OVCAR-5 ovarian = system: OVCAR-5 ovarian
SW-620 colon = system: SW-620 colon
U251 CNS = system: U251 CNS
UACC-257 melanoma = system: UACC-257 melanoma
NCI-H23 lung = system: NCI-H23 lung
SF-539 CNS = system: SF-539 CNS
CCRF-CEM leukemia = system: CCRF-CEM leukemia
LOX IMVI melanoma = system: LOX IMVI melanoma
SK-MEL-5 melanoma = system: SK-MEL-5 melanoma

SMILES	TGI (K-562 leukemia) [µM]	TGI (OVCAR-5 ovarian) [µM]	TGI (SW-620 colon) [µM]	TGI (U251 CNS) [µM]	TGI (UACC-257 melanoma) [µM]	TGI (NCI-H23 lung) [µM]	TGI (SF-539 CNS) [µM]	TGI (CCRF-CEM leukemia) [µM]	TGI (LOX IMVI melanoma) [µM]	TGI (SK-MEL-5 melanoma) [µM]	GI50 (K-562 leukemia) [µM]	GI50 (OVCAR-5 ovarian) [µM]	GI50 (SW-620 colon) [µM]	GI50 (U251 CNS) [µM]	GI50 (UACC-257 melanoma) [µM]	GI50 (NCI-H23 lung) [µM]	GI50 (SF-539 CNS) [µM]	GI50 (CCRF-CEM leukemia) [nM]	GI50 (LOX IMVI melanoma) [µM]	GI50 (SK-MEL-5 melanoma) [nM]
O=C(O)CC/C(=N\Nc1nsc2ccccc12)c1ccccc1	> 100	> 100	> 100	> 100	> 100	95.8	> 100	96.7	> 100	> 100	–	–	–	–	–	–	–	–	–	–
C[C@]12CC[C@@H]3c4ccc(O)cc4CC[C@H]3[C@@H]1C/C(=C\c1ccncc1)C2=O	> 100	> 100	> 100	> 100	> 100	> 100	28.9	> 100	58.9	27.9	–	–	–	–	–	–	–	–	–	–
COCCOCOc1ccc(OCc2ccccc2)cc1	> 100	> 100	> 100	> 100	> 100	> 100	> 100	> 100	> 100	> 100	–	–	–	–	–	–	–	–	–	–
COC(=O)C1C(C(=O)OC)N(Cc2ccccc2)C(=O)N1Cc1ccccc1 (stereo not given)	> 100	> 100	> 100	> 100	> 100	> 100	> 100	> 100	> 100	> 100	–	–	–	–	–	–	–	–	–	–
C=CCN1C(=O)/C(=C/c2ccccc2)N=C1SC1OC(COC(=O)c2ccccc2)C(OC(=O)c2ccccc2)C1OC(=O)c1ccccc1 (stereo not given)	> 100	> 100	> 100	> 100	> 100	> 100	> 100	70.4	> 100	> 100	–	–	–	–	–	–	–	–	–	–
C/C(CCOC1CCCCO1)=C(\C)[Si](C)(C)C (stereo not given)	> 100	> 100	> 100	> 100	> 100	> 100	> 100	> 100	> 100	> 100	–	–	–	–	–	–	–	–	–	–
COc1ccc2[nH]c(O)c(/C=c3/cc4c(c(-c5cc(OC)c(OC)c(OC)c5)n3)=Nc3ccccc3-4)c2c1	> 100	> 100	> 100	> 100	> 100	> 100	> 100	12.4	> 100	77.8	4.14	> 100	4.96	3.53	29.7	5.28	22.6	1410	7.54	2470
C=C(C(=O)C(=O)Oc1ccc(Cl)cc1)C(=O)c1ccc(C)cc1	> 100	> 100	36.4	46.2	> 100	> 100	34.7	> 100	16.5	> 100	–	–	–	–	–	–	–	–	–	–
CC(C)OP(=O)(OC(C)C)c1c(Nc2ccccc2)n[nH]c1N	> 100	> 100	> 100	> 100	> 100	> 100	> 100	> 100	> 100	> 100	–	–	–	–	–	–	–	–	–	–
C#CCCCCC#Cc1ccccc1C(=O)OC	67.4	> 100	46.1	> 100	> 100	> 100	> 100	32.4	33.1	> 100	–	–	–	–	–	–	–	–	–	–
CCOC(=O)c1csc(NC(=O)CCN(CC)CC)n1	> 100	> 100	92.8	> 100	> 100	> 100	56.8	83.3	> 100	> 100	–	–	–	–	–	–	–	–	–	–
CC1=C(O)C(=O)[C@@H]2O[C@@H]2C1=O	42.7	33.9	13.4	46.3	23.9	35.8	41.9	8.09	26.8	30.1	–	–	–	–	–	–	–	–	–	–
